From ChEMBL document CHEMBL1153894, “Chloroquine-astemizole hybrids with potent in vitro and in vivo antiplasmodial activity” (Bioorg Med Chem Lett, 2009) come the findings set out here.

Usually IC50 stands for the concentration needed to halve the response being measured.

SMILES strings stand for the structures.

One data set has as its system L6. The experiment in a line: Cytotoxicity against rat L6 cells. Type of data set: cell-based.
Data set [1] is described as follows: Selectivity ratio of cytotoxicity for rat L6 cells to IC50 for Plasmodium falciparum K1. Type of data set: cell-based. Particulars: read-out: FC.
In data set [2] the test system is Plasmodium falciparum. Briefly: Antiplasmodial activity against chloroquine-resistant Plasmodium falciparum K1. Type of data set: functional, organism-based.
The test system of data set [3] is Plasmodium berghei. The experiment in a line: Antiplasmodial activity as mean survival time against Plasmodium berghei infected mice (Mus musculus) at 4 x 10 mg/kg intraperitoneal dose. Type of data set: functional.
Data set [4] has as its system Plasmodium berghei. Briefly: Antiplasmodial activity as mean survival time against Plasmodium berghei infected mice (Mus musculus) at 4 x 50 mg/kg intraperitoneal dose. Type of data set: functional.
Data set [5] deals with Plasmodium berghei. Briefly: Antiplasmodial activity as mean survival time against Plasmodium berghei infected mice (Mus musculus) at 4 x 20 mg/kg intraperitoneal dose. Type of data set: functional.
The test system of data set [6] is Plasmodium berghei. The experiment in a line: Antiplasmodial activity as reduced parasitaemia against Plasmodium berghei infected mice (Mus musculus) at 4 x 50 mg/kg intraperitoneal dose. Also noted: scale not given: the % may be the effect or the level left. Type of data set: functional.
In data set [7] the test system is Plasmodium berghei. The experiment in a line: Antiplasmodial activity as reduced parasitaemia against Plasmodium berghei infected mice (Mus musculus) at 4 x 10 mg/kg intraperitoneal dose. Type of data set: functional. Also noted: scale not given: the % may be the effect or the level left.
Data set [8] has as its system Plasmodium berghei. The experiment in a line: Antiplasmodial activity as reduced parasitaemia against Plasmodium berghei infected mice (Mus musculus) at 4 x 20 mg/kg intraperitoneal dose. Also noted: scale not given: the % may be the effect or the level left. Type of data set: functional.
The test system of data set [9] is Plasmodium falciparum. The experiment in a line: Antiplasmodial activity against chloroquine-resistant Plasmodium falciparum K1 at 5 uM. Type of data set: functional.

In the data set with L6, `Fc1ccc(Cn2c(N3CCN(CCCNc4ccnc5cc(Cl)ccc45)CC3)nc3ccccc32)cc1` displayed an Activity of 6.86 µM. For the same compound, the selectivity ratio in data set [1] is over 100. Besides, the IC50 in the data set on Plasmodium falciparum [2] was found to be 23 nM.

`Fc1ccc(Cn2c(N3CCC(Nc4ccnc5cc(Cl)ccc45)CC3)nc3ccccc32)cc1` had an Activity in the data set with L6 of 9.1 µM. Besides, in data set [1], the selectivity ratio was over 100. For the same compound, the midpoint of inhibition with Plasmodium falciparum [2], the IC50, lay at 64 nM.

For `Fc1ccc(Cn2c(NC3CCN(c4ccnc5cc(Cl)ccc45)CC3)nc3ccccc32)cc1`, the MST was 17 days in the data set with Plasmodium berghei [3], 13 days in the data set with Plasmodium berghei [4] and 8 days in the data set with Plasmodium berghei [5]. Moreover, the Activity in the data set with Plasmodium berghei [6] was determined as 99%; with L6, 8.8 µM; with Plasmodium berghei [7], 99%; with Plasmodium berghei [8], 80%. The selectivity ratio in data set [1] is over 100. This compound had an IC50 in the data set on Plasmodium falciparum [2] of 37 nM.

In the data set with L6, `Fc1ccc(Cn2c(N3CCN(c4ccnc5cc(Cl)ccc45)CC3)nc3ccccc32)cc1` gave an Activity of 126 µM. For the same compound, the selectivity ratio in [1] is over 100. Half-maximal inhibition in the data set with Plasmodium falciparum [2] (IC50) was put at 610 nM.

Compound `COc1ccc(CCN2CCC(Nc3nc4ccccc4n3Cc3ccc(F)cc3)CC2)cc1` [ASTEMIZOLE] displayed an Activity with Plasmodium falciparum [9] of 50%. Also, the selectivity ratio in [1] was over 100.
